Results on 60 compounds are retold here after patent US20130029961A1, “Substituted Heterocyclic Aza Compounds” (Gruenenthal GmbH, priority 2011, published 2013).

For the first assay, the target named is T1, TRPV1 human (Homo sapiens, UniProt Q8NER1).
T1 construct: expressed in transfected cells; host or cells: CHO K1 cells
T1 sequence (Q8NER1 whole entry): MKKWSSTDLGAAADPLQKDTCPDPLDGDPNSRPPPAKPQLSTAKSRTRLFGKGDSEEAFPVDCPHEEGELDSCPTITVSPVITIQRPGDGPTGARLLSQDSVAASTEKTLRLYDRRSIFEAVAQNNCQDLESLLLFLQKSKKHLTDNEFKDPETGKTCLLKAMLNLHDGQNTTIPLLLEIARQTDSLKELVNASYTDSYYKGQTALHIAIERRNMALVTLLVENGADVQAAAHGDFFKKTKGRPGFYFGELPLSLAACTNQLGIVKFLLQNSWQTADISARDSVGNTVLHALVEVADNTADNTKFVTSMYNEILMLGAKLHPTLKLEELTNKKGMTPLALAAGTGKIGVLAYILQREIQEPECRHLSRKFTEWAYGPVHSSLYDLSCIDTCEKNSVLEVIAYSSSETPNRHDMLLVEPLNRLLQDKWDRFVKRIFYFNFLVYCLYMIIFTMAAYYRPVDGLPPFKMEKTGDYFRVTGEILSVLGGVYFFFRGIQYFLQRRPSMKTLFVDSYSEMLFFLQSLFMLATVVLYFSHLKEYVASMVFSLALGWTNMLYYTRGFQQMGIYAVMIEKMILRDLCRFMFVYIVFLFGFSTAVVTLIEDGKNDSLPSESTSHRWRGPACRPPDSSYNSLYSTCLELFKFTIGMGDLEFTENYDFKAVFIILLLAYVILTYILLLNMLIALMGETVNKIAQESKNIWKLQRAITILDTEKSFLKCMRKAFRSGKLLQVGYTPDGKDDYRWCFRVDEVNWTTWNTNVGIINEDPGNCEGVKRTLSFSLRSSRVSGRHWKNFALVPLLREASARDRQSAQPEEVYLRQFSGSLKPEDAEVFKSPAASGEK
The assay is described as follows: Functional FLIPR Ca2+ influx assay on vanilloid receptor 1 (VR1/TRPV1), capsaicin stimulus. Type of assay: cell-based. Also on record: key to TRPV1 human (f) CAP, agonist (AG): AG denotes agonist. To be noted: functional (f), vs capsaicin (CAP); Ki from IC50 by Cheng-Prusoff.
The term Ki denotes a measure of affinity in units of concentration, obtained from inhibition or displacement. On to `O=C(Cc1ccccn1)NCc1ccc(C(F)(F)F)nc1-c1cccc(Cl)c1` [compound 5], for which the Ki was 91 nM.
On the same count and under the same terms, then `O=C(Cc1ccccn1)NCc1ccc(C(F)(F)F)nc1N1CCCC1` [compound 10], with 73 nM; and `CC1CCN(c2nc(C(F)(F)F)ccc2CNC(=O)Cc2ccccn2)CC1` [compound 13], with 7 nM; and `CC1CCN(c2nc(C(F)(F)F)ccc2CNC(=O)C(C)c2ccccn2)CC1` (stereo not drawn) [compound 14], with 45 nM.
In turn, `CC1CCN(c2nc(C(F)(F)F)ccc2CNC(=O)Nc2ccccn2)CC1` [compound 19] had a Ki of 35 nM.
Still for that read-out and setting: then `CC1CCN(c2nc(C(F)(F)F)ccc2CNC(=O)Cc2cccnc2)CC1` [compound 31], with 6 nM; and `CC1CCN(c2nc(C(F)(F)F)ccc2CNC(=O)C(C)c2cccnc2)CC1` (stereo not drawn) [compound 32], with 10 nM; and `CC1CCN(c2nc(C(F)(F)F)ccc2CNC(=O)Cc2ccncn2)CC1` [compound 39], with 11 nM.
Still for that read-out and setting: then `CC1CCN(c2nc(C(F)(F)F)ccc2CNC(=O)Cc2cnccn2)CC1` [compound 40], with 107 nM.
Still for that read-out and setting: the result for `CC1CCN(c2nc(C(F)(F)F)ccc2CNC(=O)Nc2ccnnc2)CC1` [compound 42] reads 9 nM; that for `CC1CCN(c2nc(C(F)(F)F)ccc2CNC(=O)Cc2cncnc2)CC1` [compound 47], 38 nM.
Consider `CC1CCN(c2nc(C(F)(F)F)ccc2CNC(=O)Nc2ccc(CO)nc2)CC1` [compound 55], for which the Ki worked out at 11 nM.
In the case of `CC1CCN(c2nc(C(F)(F)F)ccc2CNC(=O)Nc2cnc(CCS(C)(=O)=O)c(F)c2)CC1` [compound 67], the Ki came out at 6 nM.
With `CC1CCN(c2nc(C(F)(F)F)ccc2CNC(=O)C(C)c2ccc(C(=O)Nc3ccccc3)nc2)CC1` (stereo not drawn) [compound 75], affinity was put at a Ki of 57 nM.
On the same count and under the same terms, then `CC1CCN(c2nc(C(F)(F)F)ccc2CNC(=O)C(C)c2cnc(C(=O)Nc3ccccc3)nc2)CC1` (stereo not drawn) [compound 76], with 77 nM.
On the same count and under the same terms, then `CCNc1nc(C(F)(F)F)ccc1CNC(=O)C(C)c1cnc(C(=O)Nc2ccc(F)cc2)nc1` (stereo not drawn) [compound 77], with 80 nM; and `CC(C(=O)NCc1ccc(C(F)(F)F)nc1N1CCCC1)c1cnc(C(=O)Nc2ccc(F)cc2)nc1` (stereo not drawn) [compound 78], with 42 nM.
Same read-out and setting: the result for `CC(C(=O)NCc1ccc(C(F)(F)F)nc1N1CCCCC1)c1cnc(C(=O)Nc2ccc(F)cc2)nc1` (stereo not drawn) [compound 79] reads 11 nM.
Compound `CC(C(=O)NCc1ccc(C(F)(F)F)nc1N1CCOCC1)c1cnc(C(=O)Nc2ccc(F)cc2)nc1` (stereo not drawn) [compound 80] returned an inhibitory constant (Ki) of 60 nM.
The same measure, in the same setting: the result for `Cc1cccc(-c2nc(C(F)(F)F)ccc2CNC(=O)C(C)c2cnc(C(=O)Nc3ccc(F)cc3)nc2)c1` (stereo not drawn) [compound 81] reads 5 nM; that for `CC1CCN(c2nc(C(F)(F)F)ccc2CNC(=O)C(C)c2ccc(N)c(Br)n2)CC1` (stereo not drawn) [compound 84], 50 nM; that for `CC1CCN(c2nc(C(F)(F)F)ccc2CNC(=O)C(C)c2ccc(NCCO)nc2)CC1` (stereo not drawn) [compound 85], 2 nM.
Still for that read-out and setting: the result for `CC1CCN(c2nc(C(F)(F)F)ccc2CNC(=O)Nc2ccc(NCCO)nc2)CC1` [compound 86] reads 1 nM.
Compound `COCCNc1ccc(C(C)C(=O)NCc2ccc(C(F)(F)F)nc2N2CCC(C)CC2)cn1` (stereo not drawn) [compound 87] displayed a Ki of 27 nM.
Still for that read-out and setting: then `COCCNc1ccc(NC(=O)NCc2ccc(C(F)(F)F)nc2N2CCC(C)CC2)cn1` [compound 88], with 16 nM; and `CC1CCN(c2nc(C(F)(F)F)ccc2CNC(=O)C(C)c2ccc(N(C)CCO)nc2)CC1` (stereo not drawn) [compound 89], with 53 nM; and `CC1CCN(c2nc(C(F)(F)F)ccc2CNC(=O)Nc2ccc(N(C)CCO)nc2)CC1` [compound 90], with 19 nM.
The same measure, in the same setting: then `CC1CCN(c2nc(C(F)(F)F)ccc2CNC(=O)C(C)c2cnc(NS(C)(=O)=O)c(F)c2)CC1` (stereo not drawn) [compound 96], with 1 nM.
`COc1cc(C(C)C(=O)NCc2ccc(C(F)(F)F)nc2N2CCC(C)CC2)cnc1NS(C)(=O)=O` (stereo not drawn) [compound 97]: the affinity, expressed as Ki, was 2 nM.
On the same count and under the same terms, then `CC1CCN(c2nc(C(F)(F)F)ccc2CNC(=O)C(C)c2ccc(NC(=O)c3ccccc3)nc2)CC1` (stereo not drawn) [compound 98], with 63 nM; and `CC1CCN(c2nc(C(F)(F)F)ccc2CNC(=O)C(C)c2ccc(NC(=O)c3ccc(Cl)cc3)nc2)CC1` (stereo not drawn) [compound 99], with 9 nM.
Same read-out and setting: the result for `CC1CCN(c2nc(C(F)(F)F)ccc2CNC(=O)Nc2cnc(N(C)C)c(C(F)(F)F)c2)CC1` [compound 104] reads 9 nM; that for `CC1CCN(c2nc(C(F)(F)F)ccc2CNC(=O)Nc2ccc(N3CCC3)nc2)CC1` [compound 105], 27 nM; that for `COc1cc(NC(=O)NCc2ccc(C(F)(F)F)nc2N2CCC(C)CC2)cnc1N1CCC1` [compound 107], 81 nM.
Still for that read-out and setting: the result for `CC1CCN(c2nc(C(F)(F)F)ccc2CNC(=O)Nc2ccc(N3CC(O)C3)nc2)CC1` [compound 108] reads 12 nM.
With `CC1CCN(c2nc(C(F)(F)F)ccc2CNC(=O)Nc2ccc(N3CCCC3)nc2)CC1` [compound 114], the Ki came to 12 nM.
As to `COc1cc(NC(=O)NCc2ccc(C(F)(F)F)nc2N2CCC(C)CC2)cnc1N1CCCC1` [compound 116], the Ki was 78 nM.
Take `CC1CCN(c2nc(C(F)(F)F)ccc2CNC(=O)Nc2ccc(N3CC[C@H](O)C3)nc2)CC1` [compound 117]: the Ki amounted to 9 nM.
The same measure, in the same setting: the result for `CC1CCN(c2nc(C(F)(F)F)ccc2CNC(=O)Nc2ccc(N3CC[C@@H](O)C3)nc2)CC1` [compound 118] reads 10 nM; that for `COc1ccc(C(C)C(=O)NCc2ccc(C(F)(F)F)nc2N2CCC(C)CC2)cn1` (stereo not drawn) [compound 120], 44 nM.
On the same count and under the same terms, then `CC1CCN(c2nc(C(F)(F)F)ccc2CNC(=O)Nc2ccc(OCCO)nc2)CC1` [compound 123], with 11 nM; and `COCCOc1ccc(NC(=O)NCc2ccc(C(F)(F)F)nc2N2CCC(C)CC2)cn1` [compound 124], with 4 nM.
Still for that read-out and setting: the result for `CC1CCN(c2nc(C(F)(F)F)ccc2CNC(=O)Nc2cncc(CO)c2)CC1` [compound 126] reads 26 nM; that for `CC1CCN(c2nc(C(F)(F)F)ccc2CNC(=O)Nc2ccc(CO)cn2)CC1` [compound 127], 61 nM; that for `CC1CCN(c2nc(C(F)(F)F)ccc2CNC(=O)Nc2ccncc2CO)CC1` [compound 128], 69 nM.
In the case of `CC1CCN(c2nc(C(F)(F)F)ccc2CNC(=O)Nc2ccc(C(O)CO)nc2)CC1` (stereo not drawn) [compound 129], the Ki stood at 39 nM.
Still for that read-out and setting: the result for `O=C(NCc1ccc(C(F)(F)F)nc1-c1cccc(F)c1)Nc1ccc(NCCO)nc1` [compound 130] reads 15 nM.
Same read-out and setting: the result for `O=C(NCc1ccc(C(F)(F)F)nc1-c1cncc(Cl)c1)Nc1ccc(NCCO)nc1` [compound 131] reads 29 nM.

Staying with this assay, now noted: inhibition at 1 μM compound, capsaicin (CAP).
On to `COCCN(C)c1ccc(NC(=O)NCc2ccc(C(F)(F)F)nc2N2CCC(C)CC2)cn1` [compound 91], for which the “TRPV1 human (f) CAP, inhibition (as a percentage) @ 1 μM” value was found to be 12% @ 1 μM.

The assay is the same for the next values; noted with them: inhibition at 5 μM compound, capsaicin (CAP).
In the case of `O=C(Cc1ccccn1)NCc1ccc(C(F)(F)F)nc1-c1ccc(F)c(Cl)c1` [compound 6], the “TRPV1 human (f) CAP, inhibition (as a percentage) @ 5 μM” value came out at 48% @ 5 μM.

Still in this assay, the particulars now being: inhibition at 5 μM compound, capsaicin (CAP); read-out: TRPV1 human (f) CAP, inhibition (as a percentage) @ 5 μM.
In general, inhibition refers to the drop in the measured response relative to a control, in per cent. In the case of `Cc1cccc(-c2nc(C(F)(F)F)ccc2CNC(=O)Cc2ccccn2)c1` [compound 7], the inhibition at 5 µM was 18%.
Same read-out and setting: the result for `COc1cccc(-c2nc(C(F)(F)F)ccc2CNC(=O)Cc2ccccn2)c1` [compound 8] reads 39%; that for `CCCCNc1nc(C(F)(F)F)ccc1CNC(=O)Cc1ccccn1` [compound 9], 23%; that for `O=C(Cc1ccccn1)NCc1ccc(C(F)(F)F)nc1N1CCOCC1` [compound 22], 32%.
Still for that read-out and setting: then `COCCOCc1nc(C(F)(F)F)ccc1CNC(=O)Cc1ccccn1` [compound 24], with 13%; and `CC1CCN(c2nc(C(F)(F)F)ccc2CNC(=O)Cc2ncccn2)CC1` [compound 41], with 39%.
The same measure, in the same setting: then `CC(C(=O)NCc1ccc(C(F)(F)F)nc1N1CCOCC1)c1ccc(NS(C)(=O)=O)nc1` (stereo not drawn) [compound 95], with 34%.

The assay is the same for the next values; noted with them: printed in the Ki column instead of a value.
Turning to `CC1CCN(c2nc(C(F)(F)F)ccc2CNC(=O)Cc2ccncc2)CC1` [compound 38], the “TRPV1 human (f) CAP, agonist (AG)” value is “AG”.
Same read-out and setting: then `CC1CCN(c2nc(C(F)(F)F)ccc2CNC(=O)C(C)c2ccc(Cl)nc2)CC1` (stereo not drawn) [compound 49], with “AG”.
Regarding `CC1CCN(c2nc(C(F)(F)F)ccc2CNC(=O)C(C)c2ccc(C(N)=O)nc2)CC1` (stereo not drawn) [compound 74], the “TRPV1 human (f) CAP, agonist (AG)” value was “AG”.
